Experimental data as given in the supplement of paper PMC10307832.

Experiments:
Assay in all cases: relative viability (nuclei count vs DMSO), 5 days (fraction); higher = more cells survive
NCI-H1793 = tested on: NCI-H1793
Procedure, shortened: (§1)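 Five library-drug doses in √10 steps were combined with a fixed anchor-drug dose, or a single drug was given alone, by pin tool to lung cancer cell lines in 1536-well plates the day after seeding. Nuclei were stained and counted after 5 days. Relative viability is the nuclei count in treated wells over that in vehicle wells, taken as the median of duplicate plates.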

NCI-H1915 = tested on: NCI-H1915
Procedure, shortened: as §1

NCI-H358 = tested on: NCI-H358
Procedure, shortened: as §1

NCI-H2342 = tested on: NCI-H2342
Procedure, shortened: as §1

NCI-H441 = tested on: NCI-H441
Procedure, shortened: as §1

NCI-H2009 = tested on: NCI-H2009
Procedure, shortened: as §1

NCI-H322M = tested on: NCI-H322M
Procedure, shortened: as §1

RERF-LC-KJ = tested on: RERF-LC-KJ
Procedure, shortened: as §1

HCC-15 = tested on: HCC-15
Procedure, shortened: as §1

EPLC-272H = tested on: EPLC-272H
Procedure, shortened: as §1

LK-2 = tested on: LK-2
Procedure, shortened: as §1

NCI-H1734 = tested on: NCI-H1734
Procedure, shortened: as §1

Work on `Cc1csc(=NC2CCCCC2)n1/N=C/c1ccc(O)c(O)c1O` [MIM1] + CC(=O)c1c(C)c2cnc(Nc3ccc(N4CCNCC4)cn3)nc2n(C2CCCC2)c1=O [Palbociclib] (partner 0.5 µM) yielded a relative viability (NCI-H1793; first compound 6.325 µM) of 0.29, a relative viability (NCI-H1793; first compound 20 µM) of 0.293 and a relative viability (NCI-H1915; first compound 0.2 µM) of 0.527. For the same compound, the relative viability (NCI-H1915; first compound 0.6325 µM) was 0.529, the relative viability (NCI-H1915; first compound 2 µM) was 0.497 and the relative viability (NCI-H1915; first compound 6.325 µM) was 0.395. The relative viability (NCI-H1915; first compound 20 µM) was 0.181, the relative viability (NCI-H358; first compound 0.2 µM) was 0.145 and the relative viability (NCI-H358; first compound 0.6325 µM) was 0.153. The relative viability (NCI-H358; first compound 2 µM) was 0.122, the relative viability (NCI-H358; first compound 6.325 µM) was 0.118 and the relative viability (NCI-H358; first compound 20 µM) was 0.128. The relative viability (NCI-H2342; first compound 0.2 µM) was 0.525, the relative viability (NCI-H2342; first compound 0.6325 µM) was 0.543 and the relative viability (NCI-H2342; first compound 2 µM) was 0.573. The relative viability (NCI-H2342; first compound 6.325 µM) was 0.515, the relative viability (NCI-H2342; first compound 20 µM) was 0.57 and the relative viability (NCI-H441; first compound 0.2 µM) was 0.273. For the same compound, the relative viability (NCI-H441; first compound 0.6325 µM) was 0.266, the relative viability (NCI-H441; first compound 2 µM) was 0.205 and the relative viability (NCI-H441; first compound 6.325 µM) was 0.186. The relative viability (NCI-H441; first compound 20 µM) was 0.114, the relative viability (NCI-H2009; first compound 0.2 µM) was 0.288 and the relative viability (NCI-H2009; first compound 0.6325 µM) was 0.266. It also gave a relative viability (NCI-H2009; first compound 2 µM) of 0.331, a relative viability (NCI-H2009; first compound 6.325 µM) of 0.167 and a relative viability (NCI-H2009; first compound 20 µM) of 0.122. For the same compound, the relative viability (NCI-H322M; first compound 0.2 µM) was 0.466, the relative viability (NCI-H322M; first compound 0.6325 µM) was 0.466 and the relative viability (NCI-H322M; first compound 2 µM) was 0.488. It also gave a relative viability (NCI-H322M; first compound 6.325 µM) of 0.459, a relative viability (NCI-H322M; first compound 20 µM) of 0.384 and a relative viability (RERF-LC-KJ; first compound 0.2 µM) of 0.952. The relative viability (RERF-LC-KJ; first compound 0.6325 µM) was 0.995, the relative viability (RERF-LC-KJ; first compound 2 µM) was 0.686 and the relative viability (RERF-LC-KJ; first compound 6.325 µM) was 0.613. The relative viability (RERF-LC-KJ; first compound 20 µM) was 0.227, the relative viability (HCC-15; first compound 0.2 µM) was 0.763 and the relative viability (HCC-15; first compound 0.6325 µM) was 0.709. The relative viability (HCC-15; first compound 2 µM) was 0.763, the relative viability (HCC-15; first compound 6.325 µM) was 0.433 and the relative viability (HCC-15; first compound 20 µM) was 0.121. For the same compound, the relative viability (EPLC-272H; first compound 0.2 µM) was 0.328, the relative viability (EPLC-272H; first compound 0.6325 µM) was 0.332 and the relative viability (EPLC-272H; first compound 2 µM) was 0.302. It also gave a relative viability (EPLC-272H; first compound 6.325 µM) of 0.279, a relative viability (EPLC-272H; first compound 20 µM) of 0.149 and a relative viability (LK-2; first compound 0.2 µM) of 0.774. The relative viability (LK-2; first compound 0.6325 µM) was 0.495, the relative viability (LK-2; first compound 2 µM) was 0.468 and the relative viability (LK-2; first compound 6.325 µM) was 0.725. It also gave a relative viability (LK-2; first compound 20 µM) of 0.223, a relative viability (NCI-H1734; first compound 0.2 µM) of 0.32 and a relative viability (NCI-H1734; first compound 0.6325 µM) of 0.361. It also gave a relative viability (NCI-H1734; first compound 2 µM) of 0.34, a relative viability (NCI-H1734; first compound 6.325 µM) of 0.322 and a relative viability (NCI-H1734; first compound 20 µM) of 0.193.
